Source: patent US9347013B2, “Natural oil derivative based thickener components used in grease compositions and processes for making such compositions” (Elevance Renewable Sciences, Inc., priority 2014, dated 2016)

Key:
[1] = Log P (oil solubility) of grease complexing agents; conditions: more oil soluble than azelaic acid

logP (physchem) | oil solubility relative to azelaic acid [1] | Structure (SMILES)
2.01 |  | O=C(O)CCCCCCCC(=O)O [Azelaic (C9), azelaic acid, reference compound]
3 | about 1.5 times | O=C(O)CCCCCCCCCCCCCCCCC(=O)O [ERS ODDA (C18), octadecanedioic acid]
